Experimental data published in EP0571670A1, “Pharmaceutical compositions for use as mast cell stabilizer” (THE PROCTER & GAMBLE COMPANY, priority 1992, dated 1993).
Like-named read-outs stand apart in the source and are kept apart here.

How the values were obtained:
[1] = test system: rat peritoneal mast cells; assay: Mast cell stabilization test: induced histamine release; format: cell-based, Wistar male rats; details: at the concentrations used: sodium cromoglycate 0.005 %, menthol 0.025 %, camphor 0.015 %, eucalyptol 0.0075 %
Protocol: (§1) Peritoneal rat mast cells are collected from 250 to 300 g Wistar male rats by the following procedure. Following sacrifice, each rat is injected into the peritoneal cavity with 10 ml of ice cold HEPES-buffered salt solution (HBSS), pH 7.2, containing 5 U/ml heparin. The HBSS contains 137 mM of […], 10mM HEPES, 5mM D-glucose, 2.7 mM KCl, 0.4 mM NaH₂PO₄, 0.5 mM MgCl₂ and 1 % foetal calf serum (FCS). The abdomen is massaged gently for 2 to 3 minutes and then an incision is made in the abdomen, the buffer removed by a pipette, and the peritoneal cavity lavaged twice with ice-cold HBSS. The extract is then centrifuged at 200 rpm for 10 minutes at 20°C to collect the peritoneal mast cells. These cells are then suspended again in HBSS. A count of cells present is made using an aliquot of this suspension by staining with Kimura metachromatic stain. Typically, about 1.2 to 1.7x10⁶ mast cells are collected from each animal. The rat mast cells are then activated using a Compound 48/80 in the presence of the test aromatic and antihistamine compounds and histamine-release measured as follows. 720 µl aliquots containing 9 x 10⁴ mast cells at 37°C are added to vials containing various combinations of aromatic flavour compounds. The concentrations of tyloxapol, menthol, camphor, and eucalyptol are 0.7 %, 0.025 %, 0.015 %, and 0.0075 % respectively. The solutions are incubated for about 10 minutes before 200 µl aliquots are added to tubes containing 25 µl of Compound 48/80, 25 µl of sodium cromoglycate and/or buffer, giving a concentration of Compound 48/80 and sodium cromoglycate in the tubes of […] and 0.005 % respectively. The histamine release reactions in the tubes is terminated after 10 minutes (37°C) by adding 750 µl of ice-cold HBSS and centrifuging the resulting solution for 10 minutes at 2000 rpm at 4°C. The histamine released by stimulus and the total cell histamine content are respectively determined by assaying the supernatant liquid after acidification with 5 % trichloroacetic acid (TCA) and by disintegrating the cells in 5 % (TCA) followed by analysis by automated spectrofluoremetry. […] (The net histamine release induced by compound 48/80 at the concentration used (0.1 µg/ml) was about three times the net histamine release induced by tyloxapol (15.07 ± 2.0 %)).

[2] = test system: rat peritoneal mast cells; assay: Mast cell stabilization test: histamine release inhibition; format: cell-based, Wistar male rats; details: for inhibition at 100 µM: Rattus norvegicus, Mast cell, 100 µM of sodium cromoglycate
Protocol: as §1, with “Eucalyptol” for “(The net histamine release induced by compound 48/80”, “0.0075 % gave a 9 % (non-significant) inhibitory effect. Menthol at 0.025 %” for “the concentration used (0.1 µg/ml)”, “not effective.” for “about three times the net histamine release induced by tyloxapol (15.07 ± 2.0 %)).”

| Compound | release of histamine induced by the substance [1] | inhibition of histamine release against Compound 48/80 and tyloxapol-induced histamine release ([2]; camphor at 0.015 %, series of five experiments) [%] | inhibition of histamine release ([2]; menthol at 0.025 %) | inhibitory effect on histamine release ([2]; eucalyptol at 0.0075 %, non-significant) [%] | inhibition at 100 µM ([2]; read-out: inhibition of Compound 48/80-induced histamine release) [%] | inhibition at 100 µM ([2]; read-out: inhibition of tyloxapol-induced histamine release) [%] |
| --- | --- | --- | --- | --- | --- | --- |
| CC12CCC(CC1=O)C2(C)C (stereo not drawn) [camphor] | did not induce release of histamine | 45 | – | – | – | – |
| CC1CCC(C(C)C)C(O)C1 (stereo not drawn) [menthol] | did not induce release of histamine | – | not effective | – | – | – |
| CC12CCC(CC1)C(C)(C)O2 [eucalyptol] | did not induce release of histamine | – | – | 9 | – | – |
| O=C(O)c1cc(=O)c2c(OCC(O)COc3cccc4oc(C(=O)O)cc(=O)c34)cccc2o1 [sodium cromoglycate] | did not induce release of histamine | – | – | – | 67 | 152 |
